The results in this text go back to paper PMC6320368, “A T-cell receptor escape channel allows broad T-cell response to CD1b and membrane phospholipids” (Nature Communications, 2019).

Structures are written as SMILES.

Test [1] has as its target T1, CD1b (human CD1b monomer with β2m; CD1b tetramer) (Homo sapiens, UniProt P29016).
T1 construct: soluble ectodomain with beta-2-microglobulin; His-tag purified; from High Five insect cells or HEK293S GnTI- (crystals, SPR); tetramer-facility monomers from U293 cells; with Beta-2-microglobulin
The test is described as follows: lipid-loaded CD1b tetramer staining of T-cell lines. The note with it: indirect read-out of lipid loading; CHAPS, citrate pH 7.4, 37 °C loading. The format is cell-based.

Test [2] deals with T1, CD1b (human CD1b monomer with β2m; CD1b tetramer). Kind of test: SPR of BC8B TCR on lipid-loaded CD1b; tetramer staining. Format: binding. The note with it: indirect read-out of lipid loading; pH 8.0, 25 °C.

T1 sequence (P29016 20-296): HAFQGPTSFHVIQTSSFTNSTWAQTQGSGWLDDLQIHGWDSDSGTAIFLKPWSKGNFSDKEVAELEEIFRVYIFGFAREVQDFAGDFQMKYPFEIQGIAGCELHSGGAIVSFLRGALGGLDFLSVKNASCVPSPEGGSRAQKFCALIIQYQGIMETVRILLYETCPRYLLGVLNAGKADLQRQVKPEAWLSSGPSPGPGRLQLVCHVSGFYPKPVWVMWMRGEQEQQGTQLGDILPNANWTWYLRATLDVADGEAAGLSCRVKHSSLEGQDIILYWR
T1 sequence (P61769 21-119 partner): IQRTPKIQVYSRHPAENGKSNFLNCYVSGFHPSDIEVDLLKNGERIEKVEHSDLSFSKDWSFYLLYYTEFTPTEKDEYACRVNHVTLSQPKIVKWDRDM

Take `CCCCCCCC/C=C\CCCCCCCC(=O)OC[C@@H](O)COP(=O)(O)O` [LPA, lysophosphatidic acid]: the “lipid-loaded CD1b tetramer staining of T-cell lines” value in test [1] is “specifically stained with phospholipids carrying small head groups, such as PG and LPA”.

Take `CCCCCCCCCCCCC/C=C/[C@@H](O)[C@H](COP(=O)([O-])OCC[N+](C)(C)C)NC(=O)CCCCCCCCCCCCCCC` [SM, sphingomyelin]: in test [2], the “SPR of BC8B TCR on lipid-loaded CD1b; tetramer staining” value was “The BC8B TCR detectably interacted with CD1b presenting the sphingolipid antigens, SM and sulfatide”.
